From patent US20260183407A1, “DYRK/CLK PROTACS AND USES THEREOF” (Arizona Board of Regents on Behalf of the University of …, priority 2022, published 2026)

How the values were obtained:
[1] = target: T1, DYRK1A (Homo sapiens, UniProt Q13627); assay: KdELECT kinase binding assay (Eurofins), DYRK1A; conditions: 11-point 3-fold dilution series, qPCR readout; read-out: Binding Affinity (Kd) DYRK1A
T1 construct: purchased Eurofins; host or cells: E. coli BL21-derived (T7 phage display) or HEK-293
Protocol: (§1) KDs were obtained from Eurofins who used the following procedure: Kinase tagged T7 phase strains were prepared in an E. coli host derived from the BL21 strain. E. coli were grown to log-phase and infected with T7 phage and incubated with shaking at 32° C. until lysis. The lysates were centrifuged and filtered to remove cell debris. The remaining kinases were produced in HEK-293 cells and subsequently tagged with DNA for qPCR detection. Streptavidin-coated magnetic beads were treated with biotinylated small molecule ligands for 30 minutes at room temperature to generate affinity resins for kinase assays. The liganded beads were blocked with excess biotin and washed with locking buffer (SeaBlock (Pierce), 1% BSA, 0.05% Tween 20, 1 mM DTT) to remove unbound ligand and to reduce non-specific binding. Binding reactions were assembled by combining kinases, liganded affinity beads, and test compounds in 1× binding buffer (20% SeaBlock, 0.17× PBS, 0.05% Tween 20, 6 mM DTT). Test compounds were prepared as 111X stocks in 100% DMSO. Kds were determined using a 11-poin 3-fold compound dilution series with three DMSO control points. All compounds for Kd measurements are distributed by acoustic transfer (non-contact dispensing) in 100% DMSO. The compounds were then diluted directly into the assays such that the final concentration of DMSO was 0.9%. All reactions performed in polypropylene 384-well plate. Each was a final volume of 0.02 mL. The assay plates were incubated at room temperature with shaking for 1 hour and the affinity beads were washed with wash buffer (1×PBS, 0.05% Tween 20). The beads were then resuspended in elution buffer (1X PBS, 0.05% Tween 20, 0.5 µM nonbiotinylated affinity ligand) and incubated at room temperature with shaking for 30 minutes. The kinase concentration in the eluates was measured by qPCR.

[2] = target: T1, DYRK1A; assay: HiBiT split luciferase assay of targeted degradation of DYRK1A in Flp-In T-REx 293 cells; assay type: cell-based; conditions: 300 nM compound, 24 h, HiBiT-tagged DYRK1A in Flp-In T-REx 293 cells, normalized to vehicle; read-out: Relative Degradation at 300 nM DYRK1A
Excerpt: The Flp-In T-REx 293 Cell Line and the pcDNA5/FRT/TO vector (Invitrogen) were used to generate stable cell clones for tetracyclin-inducible expression of DYRK1A and DYRK1B. These cells contain a single stably integrated Flp recognition target (FRT) site, which allows for site-specific integration of the expression cassette by the Flp (Flippase) recombinase. DYRK1 constructs were designed to contain a C-terminal HiBiT tag for quantitative detection of HiBiT-tagged proteins in cellular lysates with the help a split luciferase assay (Nano-Glo HiBiT Lytic Detection System, Promega). To monitor the targeted degradation of DYRK1A or DYRK1B, cells were seeded in 96-well plates (10,000 cells/per well) and treated with doxycyclineinal concentration 2 μg/ml) to induce DYRK1 expression. Compounds with presumed PROTAC activity were administered 24 h after seeding. After further incubation for 24 h, cells were grossly and microscopically inspected for overt toxicity. Cells were lysed in 100 μL ice-cold passive lysis buffer (PLB, Promega) by orbital shaking (30 min on ice) before lysates were centrifuged in PCR tube (20 min 20,000 g, RT). A 10 μl aliquot of the supernatant was subjected to the HiBiT lytic assay. Luminescence was quantified in an Orion Microplate luminometer (Berthold Detection System, Germany). All compounds were tested in duplicate or triplicate wells (technical replicates) and at least two independent experiments. Relative degradation was calculated by normalization to vehicle-treated control samples.

[3] = target: T2, DYRK1B (Homo sapiens, UniProt Q9Y463); assay: KdELECT kinase binding assay (Eurofins), DYRK1B; conditions: 11-point 3-fold dilution series, qPCR readout; read-out: Binding Affinity (Kd) DYRK1B
T2 construct: purchased Eurofins; host or cells: E. coli BL21-derived (T7 phage display) or HEK-293
T2 sequence (Q9Y463 whole entry, species assumed): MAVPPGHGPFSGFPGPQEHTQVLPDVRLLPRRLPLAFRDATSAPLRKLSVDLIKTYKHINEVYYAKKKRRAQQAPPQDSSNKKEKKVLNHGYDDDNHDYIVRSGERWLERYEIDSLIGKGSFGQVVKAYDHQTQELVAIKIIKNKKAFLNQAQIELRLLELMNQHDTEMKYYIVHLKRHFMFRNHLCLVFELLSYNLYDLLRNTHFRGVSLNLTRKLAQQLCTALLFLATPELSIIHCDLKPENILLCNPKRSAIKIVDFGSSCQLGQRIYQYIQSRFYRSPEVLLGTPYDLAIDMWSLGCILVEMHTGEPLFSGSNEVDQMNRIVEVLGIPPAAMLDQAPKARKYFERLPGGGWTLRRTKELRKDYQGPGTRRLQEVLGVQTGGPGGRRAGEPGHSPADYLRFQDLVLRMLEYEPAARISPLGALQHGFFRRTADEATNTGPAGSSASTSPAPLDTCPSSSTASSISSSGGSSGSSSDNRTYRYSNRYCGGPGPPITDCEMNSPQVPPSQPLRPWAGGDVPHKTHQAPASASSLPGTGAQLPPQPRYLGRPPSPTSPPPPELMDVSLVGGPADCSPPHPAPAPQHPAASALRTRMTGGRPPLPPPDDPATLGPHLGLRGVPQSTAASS
Protocol: as §1

SMILES | Kd [1] [nM] | inhibition at 0.3 µM [2] [%] | Kd [3] [nM]
Cc1nc2ccc(-c3ccnc(N)c3)nc2n1-c1ccc(N2CCN(CCOCCOCCOCCC(=O)N3CCN(c4ccc5c(c4)C(=O)N(C4CCC(=O)NC4=O)C5=O)CC3)CC2)c(F)c1 (stereo not drawn) [Compound 9, 5-(4-(3-(2-(2-(2-(4-(4-(5-(2-aminopyridin-4-yl)-2-methyl-3H-imidazo[4,5-b]pyridin-3-yl)-2-fluorophenyl)piperazin-1-yl)ethoxy)ethoxy)ethoxy)propanoyl)piperazin-1-yl)-2-(2,6-dioxopiperidin-3-yl)isoindoline-1,3-dione] | < 10 | < 30 | 
Cc1nc2ccc(-c3ccnc(N)c3)nc2n1-c1ccc(N2CCN(C(=O)CN3CCC(CC(=O)N4CCC(n5cc(CNc6cccc7c6C(=O)N(C6CCC(=O)NC6=O)C7=O)cn5)CC4)CC3)CC2)c(F)c1 (stereo not drawn) [Compound 17, 4-(((1-(1-(2-(1-(2-(4-(4-(5-(2-aminopyridin-4-yl)-2-methyl-3H-imidazo[4,5-b]pyridin-3-yl)-2-fluorophenyl)piperazin-1-yl)-2-oxoethyl)piperidin-4-yl)acetyl)piperidin-4-yl)-1H-pyrazol-4-yl)methyl)amino)-2-(2,6-dioxopiperidin-3-yl)isoindoline-1,3-dione] | < 10 | < 30 | 
Cc1nc2ccc(-c3ccnc(N)c3)nc2n1-c1ccc(N2CCN(C(=O)CCCCCN3CCN(Cc4ccc(CNc5cccc6c5CN(C5CCC(=O)NC5=O)C6=O)cc4)CC3)CC2)c(F)c1 (stereo not drawn) [Compound 15, 3-(4-((4-((4-(6-(4-(4-(5-(2-aminopyridin-4-yl)-2-methyl-3H-imidazo[4,5-b]pyridin-3-yl)-2-fluorophenyl)piperazin-1-yl)-6-oxohexyl)piperazin-1-yl)methyl)benzyl)amino)-1-oxoisoindolin-2-yl)piperidine-2,6-dione] | < 10 | < 30 | 
Cc1nc2ccc(-c3ccnc(N)c3)nc2n1-c1cc(F)c(N2CCN(C3CCN(CC#Cc4ccc(N5CCC(C(=O)N6CCC(n7cc(CNc8cccc9c8C(=O)N(C8CCC(=O)NC8=O)C9=O)cn7)CC6)CC5)nc4)CC3)CC2)c(F)c1 (stereo not drawn) [Compound 36, 4-(((1-(1-(1-(5-(3-(4-(4-(4-(5-(2-aminopyridin-4-yl)-2-methyl-3H-imidazo[4,5-b]pyridin-3-yl)-2,6-difluorophenyl)piperazin-1-yl)piperidin-1-yl)prop-1-yn-1-yl)pyridin-2-yl)piperidine-4-carbonyl)piperidin-4-yl)-1H-pyrazol-4-yl)methyl)amino)-2-(2,6-dioxopiperidin-3-yl)isoindoline-1,3-dione] | < 10 |  | < 10
Cc1nc2ccc(-c3ccnc(N)c3)nc2n1-c1ccc(N2CCN(CC#Cc3ccc(N4CCC(O)(C(=O)N5CCC(n6cc(CNc7cccc8c7C(=O)N(C7CCC(=O)NC7=O)C8=O)cn6)CC5)CC4)nc3)CC2)c(F)c1 (stereo not drawn) [Compound 33, 4-(((1-(1-(1-(5-(3-(4-(4-(5-(2-aminopyridin-4-yl)-2-methyl-3H-imidazo[4,5-b]pyridin-3-yl)-2-fluorophenyl)piperazin-1-yl)prop-1-yn-1-yl)pyridin-2-yl)-4-hydroxypiperidine-4-carbonyl)piperidin-4-yl)-1H-pyrazol-4-yl)methyl)amino)-2-(2,6-dioxopiperidin-3-yl)isoindoline-1,3-dione] |  | > 60 | 
Cc1nc2ccc(-c3ccnc(N)c3)nc2n1-c1cc(F)c(N2CCN(CC#Cc3ccc(N4CCC(C(=O)N5CCC(n6cc(COc7ccc(C8CCC(=O)NC8=O)cc7)cn6)CC5)CC4)nc3)CC2)c(F)c1 (stereo not drawn) [Compound 34, 3-(4-((1-(1-(1-(5-(3-(4-(4-(5-(2-aminopyridin-4-yl)-2-methyl-3H-imidazo[4,5-b]pyridin-3-yl)-2,6-difluorophenyl)piperazin-1-yl)prop-1-yn-1-yl)pyridin-2-yl)piperidine-4-carbonyl)piperidin-4-yl)-1H-pyrazol-4-yl)methoxy)phenyl)piperidine-2,6-dione] | < 10 |  | < 10
Cc1nc2ccc(-c3ccnc(N)c3)nc2n1-c1ccc(N2CCN(CCOCCOCCOCCC(=O)NC3CN(c4ccc5c(c4)C(=O)N(C4CCC(=O)NC4=O)C5=O)C3)CC2)c(F)c1 (stereo not drawn) [Compound 8, 3-(2-(2-(2-(4-(4-(5-(2-aminopyridin-4-yl)-2-methyl-3H-imidazo[4,5-b]pyridin-3-yl)-2-fluorophenyl)piperazin-1-yl)ethoxy)ethoxy)ethoxy)-N-(1-(2-(2,6-dioxopiperidin-3-yl)-1,3-dioxoisoindolin-5-yl)azetidin-3-yl)propanamide] | < 10 | < 30 | 

More lines, now with the values ahead:

Kd [1] [nM] | inhibition at 0.3 µM [2] [%] | Kd [3] [nM] | SMILES
< 10 |  | 10 to 100 | Cc1nc2ccc(-c3ccnc(N)c3)nc2n1-c1cc(F)c(N2C[C@@H](C)N(CC#Cc3ccc(N4CCC(C(=O)N5CCC(n6cc(CNc7cccc8c7C(=O)N(C7CCC(=O)NC7=O)C8=O)cn6)CC5)CC4)nc3)[C@@H](C)C2)c(F)c1 (stereo partly drawn) [Compound 37, 4-(((1-(1-(1-(5-(3-((2S,6R)-4-(4-(5-(2-aminopyridin-4-yl)-2-methyl-3H-imidazo[4,5-b]pyridin-3-yl)-2,6-difluorophenyl)-2,6-dimethylpiperazin-1-yl)prop-1-yn-1-yl)pyridin-2-yl)piperidine-4-carbonyl)piperidin-4-yl)-1H-pyrazol-4-yl)methyl)amino)-2-(2,6-dioxopiperidin-3-yl)isoindoline-1,3-dione]
< 10 |  | 10 to 100 | COc1cc(-n2c(C)nc3ccc(-c4ccnc(N)c4)nc32)ccc1N1CCN(CCC#Cc2ccc(N3CCC(C(=O)N4CCC(n5cc(CNc6cccc7c6C(=O)N(C6CCC(=O)NC6=O)C7=O)cn5)CC4)CC3)nc2)CC1 (stereo not drawn) [Compound 38, 4-(((1-(1-(1-(5-(4-(4-(4-(5-(2-aminopyridin-4-yl)-2-methyl-3H-imidazo[4,5-b]pyridin-3-yl)-2-methoxyphenyl)piperazin-1-yl)but-1-yn-1-yl)pyridin-2-yl)piperidine-4-carbonyl)piperidin-4-yl)-1H-pyrazol-4-yl)methyl)amino)-2-(2,6-dioxopiperidin-3-yl)isoindoline-1,3-dione]
< 10 |  | < 10 | Cc1nc2ccc(-c3ccnc(N)c3)nc2n1-c1cc(F)c(N2CCN(C3CN(CC#Cc4ccc(N5CCC(C(=O)N6CCC(n7cc(CNc8cccc9c8C(=O)N(C8CCC(=O)NC8=O)C9=O)cn7)CC6)CC5)nc4)C3)CC2)c(F)c1 (stereo not drawn) [Compound 39, 4-(((1-(1-(1-(5-(3-(3-(4-(4-(5-(2-aminopyridin-4-yl)-2-methyl-3H-imidazo[4,5-b]pyridin-3-yl)-2,6-difluorophenyl)piperazin-1-yl)azetidin-1-yl)prop-1-yn-1-yl)pyridin-2-yl)piperidine-4-carbonyl)piperidin-4-yl)-1H-pyrazol-4-yl)methyl)amino)-2-(2,6-dioxopiperidin-3-yl)isoindoline-1,3-dione]
< 10 |  | 10 to 100 | Cc1nc2ccc(-c3ccnc(N)c3)nc2n1-c1cc(F)c(N2CC3(CN(CC#Cc4ccc(N5CCC(C(=O)N6CCC(n7cc(CNc8cccc9c8C(=O)N(C8CCC(=O)NC8=O)C9=O)cn7)CC6)CC5)nc4)C3)C2)c(F)c1 (stereo not drawn) [Compound 40, 4-(((1-(1-(1-(5-(3-(6-(4-(5-(2-aminopyridin-4-yl)-2-methyl-3H-imidazo[4,5-b]pyridin-3-yl)-2,6-difluorophenyl)-2,6-diazaspiro[3.3]heptan-2-yl)prop-1-yn-1-yl)pyridin-2-yl)piperidine-4-carbonyl)piperidin-4-yl)-1H-pyrazol-4-yl)methyl)amino)-2-(2,6-dioxopiperidin-3-yl)isoindoline-1,3-dione]
